Where two headings read alike, the source gives them in different places.
Assays:
hTAS2R39 [1] = target: T1, hTAS2R39 (Homo sapiens, UniProt P59534); assay: Calcium assay of hTAS2R39 activation/inhibition in HEK293 T-Rex Flp-In cells; assay type: cell-based; conditions: for reduction of ECG response on hTAS2R39 (screening for inhibition): simultaneous application of 200 μM ECG and 250 μM flavanone, inhibition when response ratio <1; for EC80 on hTAS2R39: agonist dose-response curve
T1 construct: first 45 amino acids of rat somatostatin receptor type 3 (sst3 membrane-targeting tag) (N); expressed in transfected cells; host or cells: HEK293 T-Rex Flp-In cells stably expressing Gα16-gust44; receptor in pcDNA5/FRT, induced with doxycycline
T1 sequence (P59534 1-338): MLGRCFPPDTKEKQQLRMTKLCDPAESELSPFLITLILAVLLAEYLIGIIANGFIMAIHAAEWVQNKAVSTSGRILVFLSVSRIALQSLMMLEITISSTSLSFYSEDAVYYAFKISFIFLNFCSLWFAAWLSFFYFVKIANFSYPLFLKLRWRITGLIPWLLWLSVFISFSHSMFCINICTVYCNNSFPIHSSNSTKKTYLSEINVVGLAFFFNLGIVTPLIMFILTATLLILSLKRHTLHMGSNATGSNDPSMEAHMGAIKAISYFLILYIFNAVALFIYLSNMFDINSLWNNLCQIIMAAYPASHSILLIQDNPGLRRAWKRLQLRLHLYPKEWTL

hTAS2R39 [2] = target: T1, hTAS2R39; set-up: method as in PMID 24117141; conditions: cited from earlier work
hTAS2R14 = target: T2, hTAS2R14 (Homo sapiens, UniProt Q9NYV8); assay: Calcium assay of hTAS2R14 activation/inhibition in HEK293 T-Rex Flp-In cells; assay type: cell-based; conditions: for EC80 on hTAS2R14: agonist concentration used in inhibition tests; for IC50, Simultaneous / Threshold, Simultaneous: simultaneous addition, n.b. = no blocking
T2 construct: first 45 amino acids of rat somatostatin receptor type 3 (sst3 membrane-targeting tag) (N); expressed in transfected cells; host or cells: HEK293 T-Rex Flp-In cells stably expressing Gα16-gust44; induced with doxycycline
T2 sequence (Q9NYV8 1-317): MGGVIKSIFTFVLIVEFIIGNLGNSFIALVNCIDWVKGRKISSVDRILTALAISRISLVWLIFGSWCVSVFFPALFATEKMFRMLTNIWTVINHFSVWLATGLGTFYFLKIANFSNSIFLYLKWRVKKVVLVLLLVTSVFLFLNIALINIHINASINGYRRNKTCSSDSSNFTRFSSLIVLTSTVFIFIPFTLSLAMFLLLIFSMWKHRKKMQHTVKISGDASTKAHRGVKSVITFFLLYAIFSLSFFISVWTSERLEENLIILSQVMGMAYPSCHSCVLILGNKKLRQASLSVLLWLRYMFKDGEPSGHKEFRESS
Text: For functional expression of the human bitter taste receptor hTAS2R39, HEK293 T-Rex Flp-In cells (Invitrogen, San Diego, CA, USA) were used, stably expressing the chimeric G-protein α-subunit Gα16-gust44 (cloned into pcDNA4 (Invitrogen)) and the human bitter receptor genes for hTAS2R39 (cloned into pcDNA5/FRT (Invitrogen)). The bitter receptor gene contained a DNA sequence encoding the first 45 amino acids of rat somatostatin receptor type 3 at its 5′ end (the receptor expression was achieved according to [18] with exception of the HSV-tag), in order to improve membrane targeting of the receptor protein. The same procedure was applied for stable expression of hTAS2R14. Cells were maintained in Dulbecco's Modified Eagle's Medium (DMEM) and 10% (v/v) tetracycline-free FBS (both Lonza, Verviers, Belgium) supplemented with blasticidin (5 μg/mL), geneticin (400 μg/mL) and hygromycin (100 μg/mL) (all from Invitrogen). Cells were grown and maintained at 37 °C and 5% (v/v) CO2.
Cells were seeded into poly-L-lysine-coated (Sigma-Aldrich) 96-well plates (black wall, clear bottom, Greiner bio-one, Frickenhausen, Germany) at a density of 7*10^3 cells in 100 μL/well and cultured for 24 h. Transcription of the receptors was induced by adding 0.25 μg/mL doxycycline (Sigma-Aldrich). […] One hour after loading, cells were washed with Tyrode's buffer and taken up in Tyrode's buffer. Stock solutions of test compounds were prepared in DMSO and diluted to the appropriate concentration in Tyrode's buffer, not exceeding a DMSO concentration of 1% (v/v).
(§1) Two methods of compound administration were applied: simultaneous and stepwise addition of potential antagonist and agonist. The first 17 s before compound addition were used for baseline determination. For the simultaneous method, agonist and potential antagonist were pre-mixed, administered after 17 s, and fluorescence was measured for in total 90 s. For the stepwise method, after 17 s, the potential antagonist was added, fluorescence was measured until 120 s, and after 120 s the agonist was added and measured for another 120 s, in total 240 s. […] Each experiment was performed at least in duplicate in separate experiments (as indicated for each figure).
Data processing was done as reported previously. In brief, SoftMax Pro 5.4 software (Molecular Devices Corporation) was used to plot the fluorescence signals. The fluorescence value (ΔF/F0), representing receptor activity, was calculated by subtracting the baseline fluorescence (F0) prior to loading from the maximum fluorescence (F) after compound addition, divided by the signal of the baseline in order to normalize background fluorescence. Dose-response curves were established as non-linear regression curves using Graph Pad Prism (version 4 for Windows, Graph Pad Software, San Diego, CA, USA). Half-maximal effective concentrations (EC50) and half-maximal inhibitory concentrations (IC50) were calculated. Error bars reflect the standard error of the mean (SEM). Statistical analysis was performed in Graph Pad Prism (one-way ANOVA at 5% risk level, followed by Bonferroni's post hoc test).
Inhibition was indicated when [drawing 1] . In case of indicated inhibition, flavanones were applied at different concentrations, in order to test for dose-dependent inhibition, at the EC80 concentration of the agonist. […] To investigate the specificity of flavanones for inhibition of hTAS2R39 and hTAS2R14, another bitter taste receptor, hTAS2R16 (not known to be activated by flavonoids), was used in inhibition experiments ( File S3 ) towards its agonist salicin.

bitter taste = system: bitter taste; set-up: method as in PMID 16028996; conditions: in-vivo sensory masking, unknown mechanism; cited from earlier work
hTAS2R16 = target: T3, hTAS2R16 (Homo sapiens, UniProt Q9NYV7); assay: Calcium assay of hTAS2R16 activation/inhibition (salicin as agonist); assay type: cell-based
T3 construct: expressed in transfected cells; host or cells: induced versus non-induced cells
T3 sequence (Q9NYV7 1-291): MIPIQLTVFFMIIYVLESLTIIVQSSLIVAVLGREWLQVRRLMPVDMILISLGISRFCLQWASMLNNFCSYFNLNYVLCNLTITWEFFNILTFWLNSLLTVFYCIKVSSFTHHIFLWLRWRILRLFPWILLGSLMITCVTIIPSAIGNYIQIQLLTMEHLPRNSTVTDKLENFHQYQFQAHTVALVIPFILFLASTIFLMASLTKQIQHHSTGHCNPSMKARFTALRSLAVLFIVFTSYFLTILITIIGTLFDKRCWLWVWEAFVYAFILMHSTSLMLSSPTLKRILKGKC
Protocol: Cells were seeded into poly-L-lysine-coated (Sigma-Aldrich) 96-well plates (black wall, clear bottom, Greiner bio-one, Frickenhausen, Germany) at a density of 7*10^3 cells in 100 μL/well and cultured for 24 h. Transcription of the receptors was induced by adding 0.25 μg/mL doxycycline (Sigma-Aldrich). Cells were induced for 24 h and then loaded with the calcium-sensitive fluorescent dye Fluo-4-AM (2.5 μM, Invitrogen), which was dissolved in Tyrode's buffer containing 5% (v/v) tetracycline-free FBS (Lonza). One hour after loading, cells were washed with Tyrode's buffer and taken up in Tyrode's buffer. Stock solutions of test compounds were prepared in DMSO and diluted to the appropriate concentration in Tyrode's buffer, not exceeding a DMSO concentration of 1% (v/v).
as §1, with “Receptor activation or inhibition was measured via intracellular Ca^2+ release in a FlexStation II 384 or FlexStation III (Molecular Devices Corporation, Sunnyvale, CA, USA) by measuring fluorescence (excitation 485 nm/emission 520 nm) for either 90 s or 240 s at 37°C. Two” for “Two”
Screening for hTAS2R39 inhibition by flavanones was performed with simultaneous application of agonist (200 μM ECG) and putative antagonist (250 μM flavanone). Inhibition was indicated when [drawing 1] . In case of indicated inhibition, flavanones were applied at different concentrations, in order to test for dose-dependent inhibition, at the EC80 concentration of the agonist. Another agonist of hTAS2R39, denatonium benzoate, was used in inhibition experiments at 1.7 mM (EC80). hTAS2R14 inhibition was tested with 640 μM ECG or 70 μM genistein as agonists, representing their respective EC80 concentrations. To investigate the specificity of flavanones for inhibition of hTAS2R39 and hTAS2R14, another bitter taste receptor, hTAS2R16 (not known to be activated by flavonoids), was used in inhibition experiments ( File S3 ) towards its agonist salicin.
SUPPORTING INFORMATION to the article “6-Methoxyflavanones as Bitter Taste Receptor Blockers for hTAS2R39” by Roland, WSU; Gouka, RJ; Gruppen, H; Driesse, M; van Buren, L; Smit, G; Vincken, J-P File S3 Investigation of identified inhibitors on hTAS2R16.
To investigate whether the hTAS2R39 inhibitors 6,3’-dimethoxyflavanone (3), 4’- fluoro-6-methoxyflavanone (6), and 6-methoxyflavanone (11) were able to inhibit a bitter receptor not known for flavonoid activation, hTAS2R16 was selected for inhibition experiments. Measuring dose-response curves of the hTAS2R16 agonist […]
Figure S3. Inhibition of response of 10 mM salicin (---) on hTAS2R16 (induced (●), non-induced (○)) by 4’-fluoro-6-methoxyflavanone (6) after simultaneous addition (A) and stepwise addition (B), by 6,3’-dimethoxyflavanone (3) after simultaneous addition (C) and stepwise addition (D), and by 6-methoxyflavanone (11) after simultaneous addition (E) and stepwise addition (F). […]

[3] = 0 μM 4′-fluoro-6-methoxyflavanone (6), stepwise addition, read-out: EC50 of agonist on hTAS2R39
[4] = inhibition of hTAS2R14 response to 70 μM genistein
[5] = inhibition of hTAS2R14 response to 640 μM ECG

## O=C1CC(c2ccccc2)Oc2ccccc21 (stereo not drawn) [Compound 5, Flavanone]
hTAS2R39 [1]
  reduction of ECG response on hTAS2R39 (screening for inhibition): did not show inhibitory activity
hTAS2R39 [2]
  activation of hTAS2R39 in a previous study: b no activation of hTAS2R39 in a previous study [16].

## O=C(O[C@@H]1Cc2c(O)cc(O)cc2O[C@@H]1c1ccc(O)c(O)c1)c1cc(O)c(O)c(O)c1 [ECG, Epicatechin gallate, reference compound]
hTAS2R39 [1]; [3]
  EC50: 128 ± 82 µM
hTAS2R39 [1]
  EC80 on hTAS2R39: 200 µM
hTAS2R14
  EC80 on hTAS2R14: 640 µM

## COc1cc([C@@H]2CC(=O)c3c(O)cc([O-])cc3O2)ccc1O.[Na+] [homoeriodictyol Na-salt, reference compound]
Bitter taste
  reduction of the bitter taste of different chemical classes of bitter molecules: up to 40%

## COc1ccc2c(c1)OC(c1ccccc1)CC2=O (stereo not drawn) [Compound 12, 7-Methoxyflavanone]
hTAS2R39 [1]
  reduction of ECG response on hTAS2R39 (screening for inhibition): did not show inhibitory activity

## O=C1C[C@@H](c2ccc(O)c(O)c2)Oc2cc(O)cc(O)c21 [Compound 4, Eriodictyol]
Bitter taste
  reduction of the bitter taste of different chemical classes of bitter molecules: up to 40%
hTAS2R39 [2]
  activation of hTAS2R39 in a previous study: a activated hTAS2R39 in a previous study [16], but was selected for testing as antagonist due to ability to reduce bitter taste perception in sensory tests [9].

## COc1cccc(C2CC(=O)c3cc(OC)ccc3O2)c1 (stereo not drawn) [Compound 3, 6,3′-Dimethoxyflavanone]
hTAS2R14; [4]
  IC50, Simultaneous: n.b.
  Threshold, Simultaneous: n.b.
hTAS2R14; [5]
  IC50, Simultaneous: n.b.
  Threshold, Simultaneous: n.b.
hTAS2R14; inhibition of hTAS2R14 response to 640 μM ECG, stepwise addition
  IC50: ~250 µM
hTAS2R16; 10 mM salicin, simultaneous and stepwise addition
  inhibition of salicin response on hTAS2R16: no inhibition

## COc1ccc2oc(-c3ccccc3)cc(=O)c2c1 [6-methoxyflavone, reference compound]
hTAS2R39 [1]; data not shown
  inhibition of hTAS2R39 activation: unable to inhibit hTAS2R39 activation

## OCc1ccccc1O[C@@H]1O[C@H](CO)[C@@H](O)[C@H](O)[C@H]1O [salicin, reference compound]
hTAS2R16; agonist dose-response curve
  EC80 on hTAS2R16: 10000 µM

## COc1ccc(C2CC(=O)c3ccccc3O2)cc1 (stereo not drawn) [Compound 13, 4′-Methoxyflavanone]
hTAS2R39 [1]
  reduction of ECG response on hTAS2R39 (screening for inhibition): did not show inhibitory activity

## O=c1c(-c2ccc(O)cc2)coc2cc(O)cc(O)c12 [genistein, reference compound]
hTAS2R14
  EC80 on hTAS2R14: 70 µM

## O=C1CC(c2ccccc2)Oc2ccc(O)cc21 (stereo not drawn) [Compound 8, 6-Hydroxyflavanone]
hTAS2R39 [1]
  reduction of ECG response on hTAS2R39 (screening for inhibition): did not show inhibitory activity

## CC[N+](CC)(CC(=O)Nc1c(C)cccc1C)Cc1ccccc1 [Denatonium benzoate, denatonium benzoate, reference compound]
hTAS2R39 [1]; [3]
  EC50: 659 ± 334 µM
hTAS2R39 [1]
  EC80 on hTAS2R39: 1700 µM
hTAS2R39 [1]; agonist dose-response curve (data not shown), read-out: EC50 on hTAS2R39
  EC50: 711 µM

## O=C1CC(c2ccc(O)cc2)Oc2ccccc21 (stereo not drawn) [Compound 10, 4′-Hydroxyflavanone]
hTAS2R39 [2]
  activation of hTAS2R39 in a previous study: b no activation of hTAS2R39 in a previous study [16].
